We go through twelve molecules from patent US7329757B2 (Bayer Aktiengesellschaft, priority 2000, dated 2008).

A short description of series [1]: logP determination by HPLC on reversed-phase column (C 18), EEC Directive 79/831 Annex V.A8. It is filed as physicochemical. As for the experimental part: The calibration was carried out using unbranched alkan-2-ones (having 3 to 16 carbon atoms) with known logP values (determination of the logP values by the retention times using linear interpolation between two successive alkanones).

The subject of series [2] is weeds. Description: Pre-emergence test (Example A), damage to weeds. It is filed as in vivo. As to conditions: soil sprayed 24 hours after sowing, rated after three weeks. On the procedure: (§1) To produce a suitable preparation of active compound, 1 part by weight of active compound is mixed with the stated amount of solvent, the stated amount of emulsifier is added and the concentrate is diluted with water to the desired concentration.
Seeds of the test plants are sown in normal soil. After 24 hours, the soil is sprayed with the preparation of active compound such that the particular amount of active compound desired is applied per unit area. The concentration of active compound in the spray liquors is chosen so that the particular amount of active compound desired is applied in 1000 litres of water per hectare.
After three weeks, the degree of damage to the plants is rated in % damage in comparison to the development of the untreated control.

The subject of series [3] is weeds. Description: Post-emergence test (Example B), damage to weeds. The settings on record: test plants of 5-15 cm sprayed, rated after three weeks. It is filed as in vivo. On the procedure: as §1
Test plants of a height of 5-15 cm are sprayed with the preparation of active compound such that the particular amounts of active compound desired are applied per unit area. The concentration of the spray liquor is chosen so that the particular amounts of active compound desired are applied in 1000 l of water/ha.
After three weeks, the degree of damage to the plants is rated in % damage in comparison to the development of the untreated controls.

“5-methyl-1-(2,3-difluoromethylenedioxy-phenyl)-2(1H)-pyridinone [IX-28]”: the logP – broadly, the decadic logarithm of the partition coefficient of the neutral form, usually between octanol and water – in series [1] came to 3.95.

Consider `Cc1cc/c(=N\C(=O)C(F)(F)F)n(-c2cccc(C(F)(F)F)c2)c1` [Example 1, 2,2,2-trifluoro-N-[5-methyl-1-(3-trifluoromethylphenyl)-2(1H)-pyridinylidene]-acetamide], for which the melting point (in general, the temperature, or range, at which the solid turns liquid) came to 115 °C. Besides, the “activity against weeds (degree of damage)” value (shortened to “activity against weeds”) in the series on weeds [2] is recorded as “strong activity against weeds”. Further, the “activity against weeds” value in the series on weeds [3] was “strong activity against weeds”.

Regarding `Cc1ccc(=NC(=O)OC(C)C)n(-c2cccc(C(F)(F)F)c2)c1` [Example 2], the “activity against weeds” value in the series on weeds [2] is “strong activity against weeds”. Moreover, the chromatographic logP (usually a lipophilicity value derived from retention on a column) in series [1] (HPLC, range (acidic/neutral) not labelled) worked out at 1.59.

Consider `Cc1cc/c(=N\C#N)n(-c2cccc(C(F)(F)F)c2)c1` [Example 3, 5-methyl-1-(3-trifluoromethyl-phenyl)-2(1H)-pyridinylidenecyanamide], for which the melting point was found to be 165 °C. Moreover, the “activity against weeds” value with weeds [2] was “strong activity against weeds”. The “activity against weeds” value in the series on weeds [3] is “strong activity against weeds”.

For the molecule `CNC(=O)/N=c1\ccc(C)cn1-c1cccc(C(F)(F)F)c1` [Example 4, N-methyl-N′-[5-methyl-1-(3-trifluoromethylphenyl)-2(1H)-pyridinylidene]-urea], the melting point is 114 °C.

In the case of `Cc1ccc(=NS(=O)(=O)C(F)(F)F)n(-c2cccc(C(F)(F)F)c2)c1` [Example 5, N-[5-methyl-1-(3-trifluoromethyl-phenyl)-2(1H)-pyridinylidene]-trifluoromethanesulphonamide], the melting point was 206 °C.

Molecule `Cc1cc/c(=N\c2nnc(C(F)(F)F)s2)n(-c2cccc(C(F)(F)F)c2)c1` [Example 6, N-(5-trifluoromethyl-1,3,4-thiadiazol-2-yl)-5-methyl-1-(3-trifluoromethyl-phenyl)-2(1H)-pyridinimine] showed a melting point of 179 °C.

As for `Cc1ccc(S(=O)(=O)/N=c2\ccc(C)cn2-c2cccc(C(F)(F)F)c2)cc1` [Example 7, 4-methyl-N-[5-methyl-1-(3-trifluoromethylphenyl)-2(1H)-pyridinylidene]-benzenesulphonamide], the melting point was determined as 174 °C.

On to `Cc1cc/c(=N\C2CC2)n(-c2cccc(C(F)(F)F)c2)c1` [Example 8, N-cyclopropyl-5-methyl-1-(3-trifluoromethylphenyl)-2(1H)-pyridineimine], for which the chromatographic logP in series [1] (reversed-phase HPLC column (C 18), HPLC, range (acidic/neutral) not labelled) is 1.51.

The molecule `Cc1ccc(=O)n(-c2cccc(C(F)(F)F)c2)c1` [IX-1, 5-methyl-1-(3-trifluoromethyl-phenyl)-2(1H)-pyridinone] gave a melting point of 95 °C. Also, the “activity against weeds” value in the series with weeds [2] is on record as “strong activity against weeds”. In addition, the “activity against weeds” value with weeds [3] is “strong activity against weeds”.

Turning to `Cc1cccn(-c2cccc(C(F)(F)F)c2)c1=O` [IX-34, 3-methyl-1-(3-trifluoromethyl-phenyl)-2(1H)-pyridinone], the melting point came out at 122 °C.

In series [1] (reversed-phase HPLC column (C 18); labelled a): acidic range, 0.1% aqueous phosphoric acid/acetonitrile gradient, 43° C.), `O=c1ccc(C(F)(F)F)cn1-c1cccc(C(F)(F)F)c1` [IX-35, 5-trifluoromethyl-1-(3-trifluoromethyl-phenyl)-2(1H)-pyridinone] yielded a chromatographic logP of 2.78.
